One data set has as its system HEP-G2 cells. As to the kind of experiment: cells. The following applies: for pEC50 / Emax / EC (Emax): Homo sapiens; for pEC50: HepG2, 3 h; for HEP-G2 Tox: human, 3 h. A digest of the protocol: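 HEP-G2 cells were treated with compound for 3 h at 37 °C in MEM/0.5% BSA containing 10 μCi/ml D-(3-^3H(N))-glucose, then lysed with TCA; ^3H-water released via the respiratory chain was recovered by evaporation at 50 °C and counted. Values are corrected for non-specific and basal counts, expressed as % of maximal FCCP or DNP stimulation, and EC50 is from a variable-slope sigmoidal fit.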

The subject of the next data set is isolated mitochondria. Put plainly: Assay (II): effect of chemical uncouplers on mitochondrial respiration using isolated mitochondria (oxygen consumption). The class given is biochemical. On the procedure: Assay (II)—The Effect of Chemical Uncouplers on Mitochondrial Respiration Using Isolated Mitochondria.
This assay is used to investigate if the increase in glucose utilisation caused by the test compounds observed in the glucose utilisation assay is due to an increase in the respiration of the mitochondria. This is done by measuring oxygen consumption in isolated mitochondria.
A Clark oxygen electrode is used to determine the oxygen consumption. The isolated mitochondria are added to medium containing oxygen and nutrients (e.g. Succinate) and the rate of oxygen consumptions is measured, when stabilized a small amount of ADP is added to increase the respiration and an increase in the rate of oxygen consumption is measured. When the rate of oxygen consumption again has stabilized the test compound is added and a further increase in oxygen consumption is seen. This experiment is done with and without the addition of oligomycin which is an inhibitor of the ATP-synthase. Finally, the test compound is examined without adding ADP. If the test compound stimulates the rate of oxygen consumption in all setups, it is regarded as a chemical uncoupler.

Another data set deals with FSK-4 cells. As to the kind of experiment: Assay (IV): Glucose utilisation in FSK-4 cells. In kind it is cell-based. The following applies: for pEC50: read-out: FSK4 EC50; for Emax: read-out: FSK4 Emax (% of FCCP).
For data set [1] the following is noted: humans; cited from earlier work.
Setting [2] is: HepG2, read-out: HEP-G2 Emax (% of FCCP).
Where [3] appears, read: HepG2, read-out: HEP-G2 Emax (μM).
The mark [4] stands for this setting: read-out: HEP-G2 EC50, HEP-G2 cells, glucose utilisation, 3 hours incubation.
[5] abbreviates: HepG2, read-out: HEP-G2 Emax (% of FCCP), HEP-G2 cells, maximal stimulation relative to FCCP.
Where [6] appears, read: HepG2, read-out: HEP-G2 Emax (μM), HEP-G2 cells, concentration at which Emax is achieved (CEmax).
Where [7] appears, read: FSK-4 cells, glucose utilisation, 24 hours incubation.
[8] abbreviates: FSK-4 cells, maximal efficacy relative to FCCP.

pEC50: −log10 of the molar value. Where two headings read alike, the source gives them in different places.

The values that follow come from patent US20040138301A1, “Chemical uncouplers for the treatment of obesity” (priority 2002, published 2004).

By pEC50 is commonly meant the negative decadic logarithm of the EC50, by convention in mol/L. As a reminder, the Emax is the size of the effect at its maximum, as opposed to the concentration needed. For the compound `CC(CCC(=O)O)(c1ccc(O)c([N+](=O)[O-])c1)c1ccc(O)c([N+](=O)[O-])c1` [Example 1, 4,4-Bis-(4-Hydroxy-3-Nitrophenyl)-Valeric Acid], the pEC50 in the data set on HEP-G2 cells (read-out: HEP-G2 EC50) was 4.40. The Emax in the data set on HEP-G2 cells (setting [2]) was 45%. Also, in the data set on HEP-G2 cells (setting [3]), the EC (Emax) is 100 µM. Moreover, the “Mito State-4” value in the data set with isolated mitochondria is reported as “Ok”.
Consider `CC(C)(C)c1cc(C=C(C#N)C#N)cc(C(C)(C)C)c1O` [Example 25, 2,6-Di-t-Butyl-4-(2′,2′-Dicyanovinyl)Phenol, reference compound], for which the pEC50 in the data set on HEP-G2 cells (read-out: HEP-G2 EC50) was 6.32; in the data set with FSK-4 cells (24 h), 8.00. The Emax in the data set with HEP-G2 cells (setting [2]) was found to be 100%; with FSK-4 cells, 110%. Besides, the EC (Emax) in the data set on HEP-G2 cells (setting [3]) is 10 µM. In addition, in the data set with isolated mitochondria, the “Mito State-4” value is given as “Ok”.
As to `O=[N+]([O-])c1ccc(O)c([N+](=O)[O-])c1` [Example 26, 2,4-Dinitrophenol, reference compound], the values for the pEC50 in the data set with HEP-G2 cells (read-out: HEP-G2 EC50) and in the data set with FSK-4 cells (24 h) were 3.65 and 4.05, respectively. Further, the Emax in the data set with HEP-G2 cells (setting [2]) worked out at 100%; with FSK-4 cells, 95%. The EC (Emax) in the data set with HEP-G2 cells (setting [3]) was found to be 500 µM. Also, the “Mito State-4” value in the data set with isolated mitochondria is “Ok”. In addition, the “lowest dose which could be lethal relative to average dose giving a desired 50% increase in basal metabolic rate” value in data set [1] is reported as “twice”.
For the compound `CC(C)(C)c1cc(C(=O)Nc2ccc([N+](=O)[O-])cc2Cl)c(O)c(C(C)(C)C)c1` [Example 40, 3,5-Di-Tert-Butyl-N-(2-Chloro-4-Nitro-Phenyl)-2-Hydroxy-Benzamide], the pEC50 in the data set on HEP-G2 cells (setting [4]) was 6.24. Besides, the Emax in the data set with HEP-G2 cells (setting [5]) worked out at 105%. The EC (Emax) in the data set with HEP-G2 cells (setting [6]) was 3 µM. Further, in the data set on isolated mitochondria, the “Mito State-4” value is on record as “Ok”.
`Cc1c(Br)cc(C(C)(C)C)c(O)c1C(=O)Nc1ccc(Cl)cc1Cl` [Example 53, 3-Bromo-5-Tert-Butyl-N-(2,4-Dichloro-Phenyl)-6-Hydroxy-2-Methyl-Benzamide]: the pEC50 with HEP-G2 cells (setting [4]) was 5.38; with FSK-4 cells (setting [7]), 4.82. In addition, the Emax with HEP-G2 cells (setting [5]) was 90%; with FSK-4 cells (setting [8]) it was 95%. The EC (Emax) in the data set with HEP-G2 cells (setting [6]) was 10 µM.
In the same order, the values of `Cc1c(Br)cc(C(C)(C)C)c(O)c1C(=O)Nc1c(Cl)cc(Cl)cc1[N+](=O)[O-]` [Example 54, 3-Bromo-5-Tert-Butyl-N-(2,4-Dichloro-6-Nitro-Phenyl)-6-Hydroxy-2-Methyl-Benzamide] are 6.28, 6.52, 90%, 80% and 3 µM.
The corresponding values for `Cc1c(Br)cc(C(C)(C)C)c(O)c1C(=O)Nc1c(Cl)cc([N+](=O)[O-])cc1Cl` [Example 55, 3-Bromo-5-Tert-Butyl-N-(2,6-Dichloro-4-Nitro-Phenyl)-6-Hydroxy-2-Methyl-Benzamide] are 6.44, 6.52, 99%, 100% and 1 µM.
In the same order, the values of `Cc1ccc(C(C)(C)C)c(O)c1C(=O)Nc1ccc([N+](=O)[O-])cc1C(F)(F)F` [Example 59, 3-Tert-Butyl-2-Hydroxy-6-Methyl-N-(4-Nitro-2-Trifluoromethyl-Phenyl)-Benzamide] are 6.96, 7.52, 110%, 100% and 10 µM.
With `Cc1c(Br)cc(C(C)(C)C)c(O)c1C(=O)Nc1cc(C(F)(F)F)cc(C(F)(F)F)c1Br` [Example 60, 3-Bromo-N-(2-Bromo-3,5-Bis-Trifluoromethyl-Phenyl)-5-Tert-Butyl-6-Hydroxy-2-Methylbenzamide], the pEC50 in the data set with HEP-G2 cells (setting [4]) was 7.15; with FSK-4 cells (setting [7]), 6.52. For the same compound, the values for the Emax in the data set with HEP-G2 cells (setting [5]) and with FSK-4 cells (setting [8]) were 90% and 105%, respectively. For the same compound, the EC (Emax) in the data set on HEP-G2 cells (setting [6]) worked out at 0.3 µM.
In the same order, the values of `Cc1c(Br)cc(C(C)(C)C)c(O)c1C(=O)Nc1cc(C(F)(F)F)ccc1C(F)(F)F` [Example 61, N-(2,5-Bis-Trifluoromethyl-Phenyl)-3-Bromo-5-Tert-Butyl-6-Hydroxy-2-Methyl-Benzamide] are 6.06, 5.96, 105%, 105% and 10 µM.
With `Cc1c(Br)cc(C(C)(C)C)c(O)c1C(=O)Nc1c(Cl)cc(Cl)cc1C(F)(F)F` [Example 62, 3-Bromo-5-Tert-Butyl-N-(2,4-Dichloro-6-Trifluoromethyl-Phenyl)-6-Hydroxy-2-Methylbenzamide], the figures for the pEC50 with HEP-G2 cells (setting [4]) and in the data set on FSK-4 cells (setting [7]) were 5.64 and 5.92, respectively. Moreover, the Emax in the data set on HEP-G2 cells (setting [5]) is 115%; with FSK-4 cells (setting [8]), 85%. Further, in the data set with HEP-G2 cells (setting [6]), the EC (Emax) stood at 30 µM.
Regarding `Cc1c(Br)cc(C(C)(C)C)c(O)c1C(=O)Nc1ccc(C(C)C)cc1C(F)(F)F` [Example 63, 3-Bromo-5-Tert-Butyl-6-Hydroxy-N-(4-Isopropyl-2-Trifluoromethyl-Phenyl)-2-Methyl-Benzamide], the results for the pEC50 with HEP-G2 cells (setting [4]) and in the data set on FSK-4 cells (setting [7]) were 4.85 and 4.72, respectively. Moreover, the Emax in the data set with HEP-G2 cells (setting [5]) came to 90%; in the data set on FSK-4 cells (setting [8]) it was 55%. Besides, the EC (Emax) in the data set on HEP-G2 cells (setting [6]) is 100 µM.
As to `CCOC(=O)/C(=C/c1cc(C(C)(C)C)c(O)c(C(C)(C)C)c1)C(C)=O` [Example 69, 2-Acetyl-3-(3,5-Di-Tert-Butyl-4-Hydroxy-Phenyl)-Acrylic Acid Ethyl Ester], the pEC50 in the data set with HEP-G2 cells (setting [4]) was 4.00; in the data set on FSK-4 cells (setting [7]), 5.05. In addition, the Emax with HEP-G2 cells (setting [5]) was 58%; in the data set with FSK-4 cells (setting [8]) it was 40%. Further, the EC (Emax) with HEP-G2 cells (setting [6]) amounted to 300 µM. Also, the “HEP-G2 Tox” value in the data set with HEP-G2 cells is recorded as “Tox 1 mM”.
As for `CC(C)(C)c1cc([N+](=O)[O-])cc(C(C)(C)C)c1O` [Example 72, 2,6-Di-Tert-Butyl-4-Nitro-Phenol], the negative-log EC50 (pEC50) with HEP-G2 cells (read-out: HEP-G2 EC50) was 4.89. Further, in the data set on HEP-G2 cells (setting [2]), the Emax was found to be 100%. For the same compound, in the data set with HEP-G2 cells (setting [3]), the EC (Emax) was determined as 100 µM. For the same compound, the “Mito State-4” value in the data set on isolated mitochondria is recorded as “Ok”.
Take `CC(C)(C)c1cc([N+](=O)[O-])cc([N+](=O)[O-])c1O` [Example 73, 2-Tert-Butyl-4,6-Dinitro-Phenol]: the pEC50 in the data set with HEP-G2 cells (read-out: HEP-G2 EC50) was 5.14; in the data set with FSK-4 cells (setting [7]), 5.15. The Emax was 70% in the data set with HEP-G2 cells (setting [2]) and 100% in the data set on FSK-4 cells (setting [8]). For the same compound, in the data set on HEP-G2 cells (setting [3]), the EC (Emax) was 300 µM.
Regarding `CC(C)(C)c1cc(/C=C(\C#N)c2ccccn2)cc(C(C)(C)C)c1O` [Example 74, 3-(3,5-Di-Tert-Butyl-4-Hydroxy-Phenyl)-2-Pyridin-2-Yl-Acrylonitrile], the pEC50 in the data set with HEP-G2 cells (setting [4]) is 4.80; in the data set with FSK-4 cells (setting [7]), 4.82. The Emax in the data set on HEP-G2 cells (setting [5]) amounted to 80%; in the data set with FSK-4 cells (setting [8]), 120%. Also, in the data set with HEP-G2 cells (setting [6]), the EC (Emax) turned out to be 100 µM.
In the case of `CCOP(=O)(OCC)/C(C#N)=C\c1cc(C(C)(C)C)c(O)c(C(C)(C)C)c1` [Example 76, 3-(3,5-Di-Tertbutyl-4-Hydroxybenzylidene)-2-(Diethylphosphonate)-Propenenitrile], the negative-log EC50 (pEC50) is 4.96 in the data set on HEP-G2 cells (read-out: HEP-G2 EC50) and 5.49 in the data set on FSK-4 cells (setting [7]). The Emax with HEP-G2 cells (setting [2]) was found to be 90%; in the data set with FSK-4 cells (setting [8]), 150%. Also, the EC (Emax) in the data set on HEP-G2 cells (setting [3]) is 30 µM.
Take `CC(C)(C)c1cc(/C=C(\C#N)c2ccc(OC(F)(F)F)cc2)cc(C(C)(C)C)c1O` [Example 80, 3-(3,5-Di-Tert-Butyl-4-Hydroxy-Phenyl)-2-(4-Trifluoromethoxy-Phenyl)-Acrylonitrile]: the pEC50 in the data set on HEP-G2 cells (setting [4]) was 5.10; in the data set with FSK-4 cells (setting [7]), 4.74. Further, the Emax was 80% in the data set on HEP-G2 cells (setting [5]) and 100% in the data set on FSK-4 cells (setting [8]). In the data set on HEP-G2 cells (setting [6]), the EC (Emax) came to 100 µM. Besides, the “HEP-G2 Tox” value in the data set with HEP-G2 cells is recorded as “Tox 0.3 mM”.
For the compound `CC(C)(C)c1cc(/C=C(\C#N)c2ccc(C(F)(F)F)cc2)cc(C(C)(C)C)c1O` [Example 81, 3-(3,5-Di-Tert-Butyl-4-Hydroxy-Phenyl)-2-(4-Trifluoromethyl-Phenyl)-Acrylonitrile], the pEC50 with HEP-G2 cells (read-out: HEP-G2 EC50) and with FSK-4 cells (setting [7]) was 5.15 throughout. The values for the Emax in the data set with HEP-G2 cells (setting [2]) and in the data set on FSK-4 cells (setting [8]) were 130% and 140%, respectively. Also, the EC (Emax) with HEP-G2 cells (setting [3]) came out at 100 µM.
For the compound `CCOC(=O)/C(C#N)=C(/C)c1cc(C(C)(C)C)c(O)c(C(C)(C)C)c1` [Example 82, 2-Cyano-3-(3,5-Di-Tert-Butyl-4-Hydroxy-Phenyl)-But-2-Enoic Acid Ethyl Ester], the pEC50 with HEP-G2 cells (setting [4]) was 5.00; in the data set with FSK-4 cells (setting [7]), 4.96. Besides, the Emax in the data set with HEP-G2 cells (setting [5]) was determined as 100%; in the data set on FSK-4 cells (setting [8]), 90%. Further, the EC (Emax) in the data set with HEP-G2 cells (setting [6]) is 30 µM.
